Results: patent publication US20240182525A1, “NOVEL BICYCLIC COMPOUND, OPTICAL ISOMER THEREOF OR PHARMACEUTICALLY ACCEPTABLE SALT THEREOF, USE THEREOF, AND PREPARATION METHOD THEREFOR” (KOREARESEARCH INSTITUTE OF BIOSCIENCE AND BIOTECHNOLOGY, priority 2021, published 2024)

Tests used:
Cytotoxicity assay, 4T1 = assay type: cell-based; conditions: mouse, 4T1 cells (breast cancer); 4T1, 48 hours, maximum concentration 100 μM
Description: (§1) To measure the cytotoxicity of the compound represented by Chemical Formula 1 (Chemical Formula 1-1), toxicity was measured in mouse preadipocyte 3T3-L1 cell line, human malignant melanoma A375 cell line, mouse malignant melanoma B16F10 cell line, human oral cancer MDA-MB-435 cell line, mouse breast cancer 4T1 cell line, human breast cancer MCF7 cell line, human brain cancer U87MG cell line, human glioblastoma U373MG cell line, human cervical cancer HeLa cell line, mouse embryonic fibroblast (MEF) cell line, human embryonic kidney HEK293T cell line (Korea Cell Line Bank). First, 1×10^4 cells were divided into 200 μl each in a 96-well plate using Dulbecco's Modified Eagle's Medium (DMEM) supplemented with 10% fetal bovine serum (FBS), […] streptomycin, and 50 U/ml penicillin, while maintaining various cells at 37r in an atmosphere of 5% CO2. The cells were treated with the compound of Chemical Formula 1-1 of the present invention at a maximum concentration of 100 μM and cultured for 48 hours under the same culture conditions. After the incubation, the culture media were removed and the cytotoxicity test results were confirmed (Table 2 and FIG. 3 below).

Cytotoxicity assay, MCF7 = assay type: cell-based; conditions: human, MCF7 cells (breast cancer); MCF7, 48 hours, maximum concentration 100 μM
Description: as §1

[1] = Cytotoxicity assay, U373MG; assay type: cell-based; conditions: human, U373MG cells (glioblastoma), maximum concentration 100 μM
Description: as §1

Cytotoxicity assay, MEF = assay type: cell-based; conditions: mouse, MEF cells (embryonic fibroblasts), maximum concentration 100 μM
Description: as §1

[2] = test system: adipocyte differentiation-associated proteins in the 3T3-L1 cell line; assay: Western blotting of adipocyte differentiation-associated proteins; assay type: cell-based, mouse; conditions: 7.5 μM, FIG. 10
Description: Additionally, in order to verify the adipogenesis inhibitory ability of the Chemical Formula 1 according to the present invention, the level of adipocyte differentiation-associated proteins in the 3T3-L1 cell line was measured. The 3T3-L1 cells were cultured in a 6-well plate (2×10^5 cell/well), and the next day, the cells were replaced with normal culture media (Undifferentiated media; UND) and differentiation induction media (Differentiation media; DM), respectively, followed by treatment with the compound of Chemical Formula 1-1 at 7.5 μM for 48 hours, and then the cells were replaced with new normal culture media (Maintaining media; MM). When replacement with normal culture media, the cells were treated with 7.5 μM of Chemical Formula 1-1, and cultured for 72 hours more, followed by Western blotting.

C57BL/C6 mice [3] = assay: Anti-obesity effect in high calorie diet mouse model; assay type: in vivo; conditions: high calorie diet + 15 mg/kg, FIG. 12
Description: C57BL/C6 mice were used to test the anti-obesity effect in a mouse model with respect to the compound of Chemical Formula 1 of the present invention, which is an adipogenesis-inhibiting compound. For effective evaluation of the anti-obesity model, the control group (general diet), the control group (high calorie diet), and an anti-obesity control group (high calorie diet+Chemical Formula 1 (15 mg/kg)) were compared and evaluated (FIG. 12). The mice injected with the high-calorie diet rather than the general diet gained 131% in body weight, but the mice treated with the high-calorie diet and Chemical Formula 1 (15 mg/kg) together […] 115% in body weight.

C57BL/C6 mice [4] = assay: Blood obesity and liver damage markers in high calorie diet mice; assay type: in vivo, mouse; conditions: plasma, compared to high calorie control group, FIG. 13
Description: Then, after the experiment was completed, the animal blood of each group was collected and centrifuged to separate plasma, and then representative obesity markers in the blood such as total cholesterol (tCHO), high density lipoprotein (HDL), and low density lipoprotein (LDL), and liver damage markers such as glutamic oxaloacetic transaminase (GOT) and glutamic pyruvic acid transaminase (GPT) were analyzed with a blood chemistry analyzer.

[5] = test system: osteogenic differentiation-related genes (mCol1a1, mOsteocalcin, mOsterix); assay: RT-PCR of osteogenic differentiation-related genes; assay type: cell-based, mouse; conditions: Day 7 of differentiation, FIG. 17
Text: In order to confirm the effect of the compound of Chemical Formula 1 according to the present invention on promoting osteogenic differentiation-related genes, the expression levels of genes promoting osteogenesis were confirmed.
To confirm genetic changes during the differentiation process, total RNA was isolated on Day 7 of differentiation using Trizol reagent (Invitrogen, CA, USA) according to the manufacturer's instructions. The cultured cells were washed twice with cold PBS and lysed with 1 ml of Trizol reagent. To the resulting product, 200 μl of chloroform was added and mixed, followed by centrifugation at 4° C. and 12000 rpm for 20 minutes to separate the supernatant. The same amount of isopropanol was added to the separated supernatant, mixed, and centrifuged again at 4° C. and 12000 rpm. The supernatant was removed, and the remaining pellet was washed three times with 70% ethanol to separate RNA. For RT-PCR, the same amount of total RNA (5 μl) was put into the RT-PCR amplification kit and reacted at 45° C. for 60 minutes to prepare complementary DNA (cDNA). RT-PCR was performed on the cDNA by using AccuPower®RT/PCR PreMix (Bioneer, Korea). Briefly, 2 μl each of 75 mM rATP, rUTP, rCTP, rGTP, enzyme mixture, and 10× reaction buffer was added to 8 μl of the cDNA solution prepared above, followed by amplification according to the manufacturer's instructions, and the quantity and quality of the amplified mRNA was evaluated using nanodrops and 1% agarose gel electrophoresis.

Compound: CC(C)CC1NC(=O)C2CCCN2C(=O)C(C(O)C(C)C)NC(=O)CNC(=O)C(C(C)O)NC(=O)C2NC(=O)C(NC(=O)/C=C/c3ccccc3C(O)C(C)O)C(C)OC(=O)C(CC(N)=O)NC(=O)C(NC(=O)C(O)NC1=O)C(O)c1ccc(O)c(c1)Oc1ccc2cc1 (centres unmarked) [Chemical Formula 1-1]
- IC50 at 48 h (Cytotoxicity assay, 4T1): > 100 µM
- IC50 at 48 h (Cytotoxicity assay, MCF7): > 100 µM
- IC50 at 48 h [1]: 89.5 µM
- IC50 at 48 h (Cytotoxicity assay, MEF): > 100 µM
- level of adipogenesis induction-associated proteins ([2]; compound alone, differentiated adipocytes): lower protein levels
- level of adipogenesis induction-associated proteins ([2]; simultaneous treatment with Wnt3a-conditional media (2.5%)): lower protein levels
- abdominal fat weight (C57BL/C6 mice [3]): significant decrease
- liver weight (C57BL/C6 mice [3]): significant decrease
- body weight (C57BL/C6 mice [3]; high-calorie diet alone 131%): 115%
- glutamic oxaloacetic transaminase (GOT) (C57BL/C6 mice [4]): significantly reduced
- glutamic pyruvic acid transaminase (GPT) (C57BL/C6 mice [4]): significantly reduced
- high density lipoprotein (HDL) (C57BL/C6 mice [4]): increased
- low density lipoprotein (LDL) (C57BL/C6 mice [4]): significantly reduced
- total cholesterol (tCHO) (C57BL/C6 mice [4]): significantly reduced
- mRNA expression level of mCol1a1 [5]: increase
- mRNA expression level of mOsteocalcin [5]: increase
- mRNA expression level of mOsterix [5]: increase
